In ChEMBL document CHEMBL4680309, “Discovery of a potent β-catenin destabilizer for overcoming the resistance of 5-fluorouracil in colorectal cancer” (Bioorg Med Chem, 2021):
Calls of active or inactive are those of the source. No cut-off for these calls is given here.

Columns and labels:
[1] = Resistance index, ratio of IC50 for cytotoxicity against human HCT-116 cells harboring p53 knock out gene to IC50 for cytotoxicity against human HCT-116 cells; format: functional
HCT-116 [2] = assay: Cytotoxicity against human HCT-116 cells assessed as reduction in cell viability incubated for 72 hrs by SRB assay; details: HCT-116, 72 h
HCT-8 [3] = assay: Cytotoxicity against 5-FU resistant human HCT-8 cells assessed as reduction in cell viability incubated for 72 hrs by SRB assay; format: functional, cell-based; details: HCT-8, 72 h
HCT-116 [4] = assay: Cytotoxicity against human HCT-116 cells harboring p53 knock out gene assessed as reduction in cell viability incubated for 72 hrs by SRB assay; format: functional, cell-based; details: HCT-116, 72 h
[5] = Resistance index, ratio of IC50 for cytotoxicity against 5-FU resistant human HCT-8 cells to IC50 for cytotoxicity against human HCT-8 cells; format: functional
HCT-8 [6] = assay: Cytotoxicity against human HCT-8 cells assessed as reduction in cell viability incubated for 72 hrs by SRB assay; details: HCT-8, 72 h
HCT-8 [7] = assay: Inhibition of Wnt/beta-Catenin signaling in human HCT-8 cells assessed as reduction in cyclin D1 expression incubated for 24 hrs by Western blot analysis; format: cell-based; details: dose 20-100 µM
[8] = biological target: T1, Catenin beta-1 (Homo sapiens) (UniProt P35222); assay: Degradation of beta-catenin (unknown origin) transfected in human HCT-8 cells assessed as reduction in cyclin D1 mRNA expression at 50 uM incubated for 24 hrs by qRT-PCR analysis; format: cell-based
T1 sequence (whole entry): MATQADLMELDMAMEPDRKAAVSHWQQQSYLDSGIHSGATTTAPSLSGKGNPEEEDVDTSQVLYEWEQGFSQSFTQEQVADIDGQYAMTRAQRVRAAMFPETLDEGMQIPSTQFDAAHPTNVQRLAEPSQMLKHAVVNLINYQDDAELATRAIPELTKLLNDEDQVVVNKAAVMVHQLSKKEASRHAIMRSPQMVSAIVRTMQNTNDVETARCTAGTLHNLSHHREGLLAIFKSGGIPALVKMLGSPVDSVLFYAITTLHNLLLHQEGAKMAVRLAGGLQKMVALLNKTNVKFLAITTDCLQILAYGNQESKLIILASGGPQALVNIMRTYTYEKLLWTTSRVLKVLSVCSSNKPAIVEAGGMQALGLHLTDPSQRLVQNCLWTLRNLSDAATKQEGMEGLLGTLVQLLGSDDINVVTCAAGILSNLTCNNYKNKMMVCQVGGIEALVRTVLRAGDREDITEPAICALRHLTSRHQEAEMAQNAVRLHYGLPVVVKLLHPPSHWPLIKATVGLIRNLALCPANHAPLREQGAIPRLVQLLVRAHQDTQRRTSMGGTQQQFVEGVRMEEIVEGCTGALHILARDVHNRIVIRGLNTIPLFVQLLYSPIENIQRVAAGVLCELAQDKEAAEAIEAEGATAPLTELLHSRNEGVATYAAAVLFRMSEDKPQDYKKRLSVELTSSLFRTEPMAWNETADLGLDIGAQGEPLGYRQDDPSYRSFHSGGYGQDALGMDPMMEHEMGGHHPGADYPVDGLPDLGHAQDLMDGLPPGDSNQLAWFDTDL

HCT-8 [9] = assay: Effect on beta-Catenin mRNA expression in 5-FU resistant human HCT-8 cells at 50 to 100 uM incubated for 24 hrs by qRT-PCR analysis; format: functional, cell-based; details: dose 50-100 µM
[10] = biological target: T1, Catenin beta-1 (Homo sapiens); assay: Degradation of beta-Catenin in human HCT-8 cells assessed as reduction in Wnt-3a-induced beta-Catenin level at 50 to 100 uM incubated for 24 hrs by Western blot analysis; format: cell-based; details: dose 50-100 µM
[11] = biological target: T1, Catenin beta-1 (Homo sapiens); assay: Degradation of beta-catenin (unknown origin) transfected in 5-FU resistant human HCT-8 cells assessed as reduction in cyclin D1 mRNA expression at 50 uM incubated for 24 hrs by qRT-PCR analysis; format: cell-based
HCT-8 [12] = assay: Inhibition of Wnt/beta-Catenin signaling in human HCT-8 cells assessed as reduction in c-myc expression incubated for 24 hrs by Western blot analysis; format: cell-based; details: dose 20-100 µM
[13] = biological target: T1, Catenin beta-1 (Homo sapiens); assay: Degradation of beta-catenin (unknown origin) transfected in 5-FU resistant human HCT-8 cells assessed as reduction in cell viability at 50 uM incubated for 24 hrs by SRB assay; format: cell-based
HCT-8 [14] = assay: Inhibition of Wnt/beta-Catenin signaling in 5-FU resistant human HCT-8 cells assessed as reduction in beta-catenin level incubated for 24 hrs by Western blot analysis; format: cell-based; details: dose 20-100 µM
SW480 = assay: Cytotoxicity against human SW480 cells assessed as reduction in cell viability incubated for 72 hrs by SRB assay; details: SW480, 72 h
HCT-8 [15] = assay: Cytotoxicity against human HCT-8 cells assessed as reduction in cell viability at 100 uM incubated for 72 hrs by SRB assay; format: functional, cell-based
HCT-8 [16] = assay: Effect on beta-Catenin mRNA expression in human HCT-8 cells at 100 uM incubated for 24 hrs by qRT-PCR analysis; format: functional, cell-based
HCT-8 [17] = assay: Inhibition of Wnt/beta-Catenin signaling in human HCT-8 cells assessed as reduction in survivin expression incubated for 24 hrs by Western blot analysis; format: cell-based; details: dose 20-100 µM
[18] = biological target: T1, Catenin beta-1 (Homo sapiens); assay: Degradation of beta-catenin (unknown origin) transfected in human HCT-8 cells assessed as reduction in cell viability at 50 uM incubated for 24 hrs by SRB assay; format: cell-based
[19] = biological target: T1, Catenin beta-1 (Homo sapiens); assay: Degradation of beta-catenin (unknown origin) transfected in 5-FU resistant human HCT-8 cells assessed as reduction in c-myc mRNA expression at 50 uM incubated for 24 hrs by qRT-PCR analysis; format: cell-based
HCT-8 [20] = assay: Inhibition of Wnt/beta-Catenin signaling in 5-FU resistant human HCT-8 cells assessed as reduction in cyclin D1 expression incubated for 24 hrs by Western blot analysis; format: cell-based; details: dose 20-100 µM
[21] = Cytotoxicity against human RKOE6 cells assessed as reduction in cell viability incubated for 72 hrs by SRB assay; details: RKOE6, 72 h
LoVo = assay: Cytotoxicity against human LoVo cells assessed as reduction in cell viability incubated for 72 hrs by SRB assay
HCT-8 [22] = assay: Inhibition of Wnt/beta-Catenin signaling in 5-FU resistant human HCT-8 cells assessed as reduction in survivin expression incubated for 24 hrs by Western blot analysis; format: cell-based; details: dose 20-100 µM
HT-29 = assay: Cytotoxicity against human HT-29 cells assessed as reduction in cell viability incubated for 72 hrs by SRB assay; details: HT-29, 72 h
HCT-8 [23] = assay: Inhibition of Wnt/beta-Catenin signaling in human HCT-8 cells assessed as reduction in beta-catenin level incubated for 24 hrs by Western blot analysis; format: cell-based; details: dose 20-100 µM
[24] = biological target: T1, Catenin beta-1 (Homo sapiens); assay: Degradation of beta-catenin (unknown origin) transfected in human HCT-8 cells assessed as reduction in survivin mRNA expression at 50 uM incubated for 24 hrs by qRT-PCR analysis; format: cell-based
[25] = biological target: T1, Catenin beta-1 (Homo sapiens); assay: Degradation of beta-catenin (unknown origin) transfected in 5-FU resistant human HCT-8 cells assessed as reduction in survivin mRNA expression at 50 uM incubated for 24 hrs by qRT-PCR analysis; format: cell-based
HCT-8 [26] = assay: Effect on beta-Catenin mRNA expression in human HCT-8 cells at 50 uM incubated for 24 hrs by qRT-PCR analysis; format: functional, cell-based
HCT-8 [27] = assay: Inhibition of Wnt/beta-Catenin signaling in 5-FU resistant human HCT-8 cells assessed as reduction in c-myc expression incubated for 24 hrs by Western blot analysis; format: cell-based; details: dose 20-100 µM
[28] = biological target: T1, Catenin beta-1 (Homo sapiens); assay: Degradation of beta-catenin (unknown origin) transfected in human HCT-8 cells assessed as reduction in c-myc mRNA expression at 50 uM incubated for 24 hrs by qRT-PCR analysis; format: cell-based

In the case of `O=c1[nH]cc(F)c(=O)[nH]1` [FLUOROURACIL], the “Ratio IC50” value [1] is reported as 2.5, the IC50 (HCT-116 [2]) is reported as 1.7 µM and the IC50 (HCT-8 [3]) is reported as 47 µM. For the same compound, the IC50 (HCT-116 [4]) was 4.3 µM, the “Ratio IC50” value [5] was 21 and the IC50 (HCT-8 [6]) was 2.2 µM.
For `C=C1C(=O)O[C@@H]2CCCn3cccc3[C@@H]12`, the “Ratio IC50” value [1] was 1, the inhibition (HCT-8 [7]) was “Dose-dependent effect” and the Activity [8] was “inactive”. The Activity (HCT-8 [9]) was “inactive”, the Activity [10] was “Active” and the Activity [11] was “inactive”. For the same compound, the IC50 (HCT-116 [2]) was 13 µM, the inhibition (HCT-8 [12]) was “Dose-dependent effect” and the Activity [13] was “inactive”. The inhibition (HCT-8 [14]) was “Dose-dependent effect”, the IC50 (SW480) was 16.8 µM and the inhibition (HCT-8 [15]) was “inactive”. For the same compound, the Activity (HCT-8 [16]) was “inactive”, the inhibition (HCT-8 [17]) was “Dose-dependent effect” and the Activity [18] was “inactive”. The Activity [19] was “inactive”, the inhibition (HCT-8 [20]) was “Dose-dependent effect” and the IC50 [21] was 7.93 µM. The IC50 (LoVo) was 10.2 µM, the IC50 (HCT-8 [3]) was 11 µM and the inhibition (HCT-8 [22]) was “Dose-dependent effect”. The IC50 (HT-29) was 8.52 µM, the inhibition (HCT-8 [23]) was “Dose-dependent effect” and the Activity [24] was “inactive”. For the same compound, the Activity [25] was “inactive”, the Activity (HCT-8 [26]) was “Active” and the IC50 (HCT-116 [4]) was 14 µM. The “Ratio IC50” value [5] was 1, the inhibition (HCT-8 [27]) was “Dose-dependent effect” and the Activity [28] was “inactive”. For the same compound, the IC50 (HCT-8 [6]) was 11 µM.
In the case of `CCCCc1ccc2n1CCC[C@H]1OC(=O)[C@@H](C)[C@H]21`, the inhibition (HCT-8 [15]) is reported as “inactive”.
For `C=C1C(=O)O[C@@H]2CCCn3c(C=O)ccc3[C@@H]12`, the inhibition (HCT-8 [15]) was “inactive”.
For `CC[C@@H]1C(=O)O[C@@H]2CCCn3cccc3[C@@H]12`, the inhibition (HCT-8 [15]) was “inactive”.
With `CC[C@H]1C(=O)O[C@@H]2CCCn3cccc3[C@H]21` the inhibition (HCT-8 [15]) was “inactive”.
